Test results from patent US11911396B2, “Use of compound in preparation of drug for treating cerebral small vessel disease” (GUANGZHOU CELLPROTEK PHARMACEUTICAL CO., LTD, priority 2017, dated 2024).

Key:
[1] = test system: CD163; assay: Immunofluorescence of CD163 in prefrontal cortex brain tissue, acute hypobaric hypoxia model; type: in vivo, cynomolgus monkeys; conditions: FIGS. 5A and 5B
From the text: (§1) FIG. 5. […] A. Immunofluorescence imaging of CD163 and Iba-1 in the brain tissue of cynomolgus monkeys. B. Statistics of relative fluorescence intensity of CD163 and Iba-1. C. Correlation analysis of relative fluorescence intensity of CD163 and Iba-1. NN: Normobaric Normoxia group; HH: Hypobaric Hypoxia group; HH+Triol: Hypobaric Hypoxia with Triol administration group; HH+PROG: Hypobaric Hypoxia with progesterone administration group. One-way ANOVA analysis and Dunnutt's t test were used to perform statistical tests, and in the latter each group was compared with the HH group, ***, p<0.001.
(§2) The thickness of paraffin sections was 5 μm. For fresh paraffin sections, the sections were dried at 37° C. overnight and then dried at 55° C. for 30 minutes. The sections were quickly placed in xylene for dewaxing. After fully dewaxing with xylene for 10 min for 3 times, absolute ethanol-95% ethanol-90% ethanol-80% ethanol-70% ethanol-50% ethanol-ddH2O were successively used for gradient rehydration. After rehydration, the sections were placed in EDTA antigen repair solution for microwave high temperature repair. After the repair was completed, it was allowed naturally cool down to room temperature. […] NIS-Elements Analysis software was used to analyze the fluorescence intensity of confocal images, which was then normalized with the fluorescence intensity per unit area according to the built-in scale. […]

[2] = test system: Iba1; assay: Immunofluorescence of Iba1 in prefrontal cortex brain tissue, acute hypobaric hypoxia model; type: in vivo, cynomolgus monkeys; conditions: FIG. 5
From the text: as §1, §2

Structure (SMILES): CC(=O)[C@H]1CC[C@H]2[C@@H]3CCC4=CC(=O)CC[C@]4(C)[C@H]3CC[C@]12C [progesterone, reference compound]
- down-regulation of CD163 expression caused by acute hypobaric hypoxia [1]: did not cancel the inhibition
- Iba1 expression [2]: increased
